Measurements reported in patent EP0369079A1, “Pharmaceutical compositions with anti-cancer activity and method for the treatment of cancer” (priority 1988, dated 1990).
Where a name gives a salt, the structure may show the parent alone. Read-outs that look alike come from different tables or passages of the source.

Tests used:
[1] = L-ascorbic acid in combination with other aromatic aldehydes or derivatives (synergy check); format: cell-based; settings: used in combination with L-ascorbic acid
NHIK 3025 cells [2] = assay: Rate of protein synthesis ([3H]valine incorporation related to [14C] protein label); format: cell-based, Human; settings: Table 6, control 4.5
Experimental: Human cells of the established line NHIK 3025, originating from a cervical carcinoma in situ (Nordbye, K., and Oftebro, R. Exp. Cell Res., 58:458, l969), Oftebro, R., and Nordbye, K., Exp. Cell Res., 58:459-460, 1969) were cultivated in Medium E2a (Puck, T.T. et al., J. Exp. Med., 106: 145-165, 1957) supplemented with 20% human and 10% horse serum (Grand Island Biological Co.). The cells are grown as monolayers in tissue culture flasks. […] The cells were kept in continuous exponential growth by frequent reculturing, i.e. every second and third day.
The rate of protein synthesis was calculated as described in Rønning, ø. W. et al., J. Cell Physiol., 107: 47-57, 1981. Briefly, cellular protein was labelled to saturation during a 2-day preincubation with (¹⁴C)valine of constant specific radioactivity (0.5 Ci/mol) prior to the experiment. This was achieved by using a high concentration of valine so that the dilution of (¹⁴C) valine by intracellular valine and by proteolytically generated valine will be negligible (Rønning, ø. W., et al. Exp. Cell Res. 123:63-72, 1979), thus keeping the specific radioactivity at a constant level. The rate of protein synthesis was calculated from the incorporation of (³H) valine of constant specific activity. The incorporation measurements were related to the total of (¹⁴C) radioacitivty in protein at the beginning of the respective measurement periods and expressed as the percentage per hour (Rønning, ø. W. et al, J. Cell, Physiol. 107:47-57, 1981).
From earlier studies, it is known that determination of protein synthesis inhibition is a useful measure of anti-cancer activity. In the present study we have tested the protein synthesis inhibition as induced by both BASS and Asc alone, and by the two active agents in simultaneous combination. The experiment also included samples treated similarly, but where BASS-d₁ was used instead of BASS.

NHIK 3025 cells [3] = assay: Cell survival (colony formation) after drug treatment; format: cell-based, Human; settings: for Surviving fraction: 1440 min
Experimental: The cells are grown as monolayers in tissue culture flasks. […] The cells were kept in continuous exponential growth by frequent reculturing, i.e. every second and third day.
For measurment of cell survival, appropriate numbers of cells were seeded in plastic Petri dishes (⌀ = 5 cm). The number of cells seeded into each dish was adjusted such that the number of surviving cells would be approximately 150 per dish. While exponentially growing (asynchronous) cells were trypsinized before seeding, synchronized cells were seeded immediately after selection. […] After the desired time of treatment, the drug-containing medium was removed, and fresh medium was added. The dishes were rinsed once with the same medium as was to be added on addition or removal of drug. After 10 to 12 days at 37°C in a CO₂ incubator, the cells were fixed in ethanol and stained with methylene blue before the colonies were counted.
The cytotoxic effect of BASS and of ascorbic acid (Asc) used either alone or in simultaneous combination was measured on asynchronous, exponentially growing NHIK 3025 cells.

[4] = 1.0 mM BASS or BASS-d1 alone (0 mM Asc), per cent of the total cellular protein per hour
[5] = 3.2 mM BASS or BASS-d1 alone (0 mM Asc)
[6] = Homo sapiens, NHIK3025, 24 h, Table 4, 24 hours, 1.0 mM BASS or BASS-d1 alone (0 mM Asc), read-out: Surviving fraction

OC1O[C@@H]2COC(c3ccccc3)O[C@H]2[C@H](O)[C@H]1O (stereo partly drawn) [4,6-O-benzylidene glucose]
synergistic effects [1]: without observing any synergistic effects

O=C1O[C@H]([C@@H](O)CO)C(O)=C1O [Asc, L-ascorbic acid, reference compound]
rate of protein synthesis (NHIK 3025 cells [2]; 1.0 mM Asc alone): 2.96±0.04 %/h | rate of protein synthesis (NHIK 3025 cells [2]; 3.2 mM Asc alone): 1.5±0.2 %/h | viability at 1600 µM (NHIK 3025 cells [3]; Homo sapiens, NHIK3025, 4 h, Table 3, 4 hours, 1.6 mM Asc alone, read-out: Surviving fraction): 91 ± 1% | viability at 3200 µM (NHIK 3025 cells [3]; Homo sapiens, NHIK3025, 4 h, Table 3, 4 hours, 3.2 mM Asc alone, read-out: Surviving fraction): 27 ± 3% | viability at 800 µM (NHIK 3025 cells [3]; Homo sapiens, NHIK3025, 24 h, Table 1, 24 hours, 0.8 mM Asc alone (0 mM BASS), read-out: Surviving fraction): 91 ± 9% | viability at 1200 µM (NHIK 3025 cells [3]; Homo sapiens, NHIK3025, 24 h, Table 1, 24 hours, 1.2 mM Asc alone (0 mM BASS), read-out: Surviving fraction): 80% | viability at 1600 µM (NHIK 3025 cells [3]; Homo sapiens, NHIK3025, 24 h, Table 1, 24 hours, 1.6 mM Asc alone (0 mM BASS), read-out: Surviving fraction): 61 ± 4% | viability at 2400 µM (NHIK 3025 cells [3]; Homo sapiens, NHIK3025, 24 h, Table 1, 24 hours, 2.4 mM Asc alone (0 mM BASS), read-out: Surviving fraction): 40 ± 3% | viability at 3200 µM (NHIK 3025 cells [3]; Homo sapiens, NHIK3025, 24 h, Table 1, 24 hours, 3.2 mM Asc alone (0 mM BASS), read-out: Surviving fraction): 11 ± 0.8% | viability at 800 µM (NHIK 3025 cells [3]; Homo sapiens, NHIK3025, Table 2 (further experiment, similar to Table 1), 0.8 mM Asc alone, read-out: Surviving fraction): 95 ± 5% | viability at 1200 µM (NHIK 3025 cells [3]; Homo sapiens, NHIK3025, Table 2 (further experiment, similar to Table 1), 1.2 mM Asc alone, read-out: Surviving fraction): 69 ± 2% | viability at 1600 µM (NHIK 3025 cells [3]; Homo sapiens, NHIK3025, Table 2 (further experiment, similar to Table 1), 1.6 mM Asc alone, read-out: Surviving fraction): 54 ± 2% | viability at 2400 µM (NHIK 3025 cells [3]; Homo sapiens, NHIK3025, Table 2 (further experiment, similar to Table 1), 2.4 mM Asc alone, read-out: Surviving fraction): 29 ± 1% | viability at 3200 µM (NHIK 3025 cells [3]; Homo sapiens, NHIK3025, Table 2 (further experiment, similar to Table 1), 3.2 mM Asc alone, read-out: Surviving fraction): 8.7 ± 1% | Surviving fraction (NHIK 3025 cells [3]; Table 1, 24 hours, 1.2 mM Asc alone (0 mM BASS), 1200 µM): 0.80±0.09

O=C1O[C@H]([C@@H]2COC(c3ccccc3)O2)C(O)=C1O (stereo partly drawn) [BASS, sodium salt of 5,6-O-benzylidene-L-ascorbic acid]
rate of protein synthesis (NHIK 3025 cells [2]; [4]): 3.06±0.02 %/h | rate of protein synthesis (NHIK 3025 cells [2]; [5]): 1.71±0.05 %/h | viability at 1600 µM (NHIK 3025 cells [3]; Homo sapiens, NHIK3025, 4 h, Table 3, 4 hours, 1.6 mM BASS alone, read-out: Surviving fraction): 80 ± 5% | viability at 3200 µM (NHIK 3025 cells [3]; Homo sapiens, NHIK3025, 4 h, Table 3, 4 hours, 3.2 mM BASS alone, read-out: Surviving fraction): 36 ± 3% | viability at 1000 µM (NHIK 3025 cells [3]; Homo sapiens, NHIK3025, 24 h, Table 1, 24 hours, 1.0 mM BASS alone (0 mM Asc), read-out: Surviving fraction): 76% | viability at 1600 µM (NHIK 3025 cells [3]; Homo sapiens, NHIK3025, 24 h, Table 1, 24 hours, 1.6 mM BASS alone (0 mM Asc), read-out: Surviving fraction): 52 ± 2% | viability at 3200 µM (NHIK 3025 cells [3]; Homo sapiens, NHIK3025, 24 h, Table 1, 24 hours, 3.2 mM BASS alone (0 mM Asc), read-out: Surviving fraction): 1.1 ± 0.1% | viability at 1000 µM (NHIK 3025 cells [3]; [6]): 62 ± 5% | viability at 1600 µM (NHIK 3025 cells [3]; Homo sapiens, NHIK3025, 24 h, read-out: Surviving fraction): 24 ± 3% | viability at 500 µM (NHIK 3025 cells [3]; Homo sapiens, NHIK3025, Table 2 (further experiment, similar to Table 1), 0.5 mM BASS alone, read-out: Surviving fraction): 91 ± 7% | viability at 1000 µM (NHIK 3025 cells [3]; Homo sapiens, NHIK3025, Table 2 (further experiment, similar to Table 1), 1.0 mM BASS alone, read-out: Surviving fraction): 63 ± 8% | viability at 1600 µM (NHIK 3025 cells [3]; Homo sapiens, NHIK3025, Table 2 (further experiment, similar to Table 1), 1.6 mM BASS alone, read-out: Surviving fraction): 44 ± 3% | viability at 3200 µM (NHIK 3025 cells [3]; Homo sapiens, NHIK3025, Table 2 (further experiment, similar to Table 1), 3.2 mM BASS alone, read-out: Surviving fraction): 3.9 ± 0.4% | Surviving fraction (NHIK 3025 cells [3]; Table 1, 24 hours, 1.0 mM BASS alone (0 mM Asc), 1000 µM): 0.76±0.02

[2H]C1(c2ccccc2)OC[C@@H]([C@H]2OC(=O)C(O)=C2O)O1 (stereo partly drawn) [BASS-d₁, sodium salt of 5,6-O-benzylidene-L-ascorbic acid deuterated at the 1-position of the aldehyde group of the benzylidene moiety]
rate of protein synthesis (NHIK 3025 cells [2]; [4]): 3.03±0.16 %/h | rate of protein synthesis (NHIK 3025 cells [2]; [5]): 2.00±0.03 %/h | viability at 1000 µM (NHIK 3025 cells [3]; [6]): 55 ± 5%
